The results in this text go back to EP4703354A1, “COMPOUND AS CCR6 ANTAGONIST, AND PHARMACEUTICAL COMPOSITION AND USE THEREOF” (Wuhan Createrna Science and Technology Co.,Ltd., priority 2023, dated 2024).

Series [1] is described as follows: in vitro liver microsome metabolic stability, mouse. The format is in vitro ADME. The settings on record: Mouse liver microsomes, 37°C. The method, then: Preparation of working solutions for test compounds and standards: An appropriate amount of the compound was accurately weighed and dissolved in a corresponding volume of suitable solvent to prepare 1 mM stock solutions of the test compounds and standards. The stock solutions were then diluted with appropriate solvent to obtain 100 µM working solutions of the test compounds, ensuring that the DMSO content in the working solutions remained below 10%.
The internal standard compound testosterone (or tolbutamide) and its corresponding solvent, internal standard concentration (200 ng/mL), were selected based on the properties of the test compound.
• Solution A: 0.1 mol/L K2HPO4 (2.28 g K2HPO4·3H2O was dissolved in 100 mL of double-distilled water); • Solution B: 0.1 mol/L KH2PO4 (1.36 g KH2PO4 was dissolved in 100 mL of double-distilled water); • 80.2 mL of Solution A and 19.8 mL of Solution B were mixed thoroughly, and the pH was adjusted to 7.4.
37.5 mg of glycine was weighed, dissolved in 100 mL of ultrapure water, and adjusted to pH 8.0 with NaOH.
1.25 mg of glucose-6-phosphate dehydrogenase (400 U/mg) was weighed (the specific amount weighed was calculated based on the activity of the purchased glucose-6-phosphate dehydrogenase), dissolved in 1 mL of glycine buffer to a concentration of 500 U/mL, aliquoted into 20 µL per tube, and stored at -20°C for future use.
7.83 mg of NADP, 0.06 mL of D-glucose-6-phosphate (260 mg/mL), and 10.17 mg of MgCl2·6H2O were precisely weighed.
The mixture was dissolved in 1 mL of pure water. The cofactor ratio composition: NADP 10 mM, D-glucose-6-phosphate 60 mM, MgCl2·6H2O 50 mM.
The reaction system (taking a 500 µL system as an example) was composed of the following solution ratios: 416.5 µL phosphate buffer, 5 µL compound working solution, 25 µL liver microsomes, 3.5 µL glucose-6-phosphate dehydrogenase, and 50 µL cofactor solution. The total incubation volume could be adjusted according to experimental requirements.
416.5 µL of phosphate buffer was taken, 25 µL of liver microsomes, 3.5 µL of glucose-6-phosphate dehydrogenase, and 50 µL of cofactor solution were added, vortexed twice to mix, and preincubated in a 37°C water bath for 5 minutes. Then, 5 µL of the test compound working solution was added, vortexed twice to mix, each time for 2-3 seconds, and placed in a 37°C water bath to initiate the reaction, with two parallel samples set. At 0.5 min, 1 min, 2 min, 5 min, 15 min, and 30 min after the reaction, 50 µL of the mixture was taken and added to centrifuge tubes containing 200 µL of 0°C pre-cooled internal standard working solution to terminate the reaction, vortexed for 1 minute to mix, and centrifuged at 13,000 rpm for 10 minutes in a 4°C pre-cooled high-speed centrifuge. The supernatant was collected for analysis. After the compound was added and vortex-mixed, 50 µL of the mixture was rapidly transferred to a centrifuge tube containing 200 µL of a pre-cooled (0°C) internal standard working solution to terminate the reaction, vortex-mixed for 1 minute, and used as the relative zero-point sample (relative to the standard group). The sample was then placed into a 37°C water bath to initiate the reaction, and timing was started.
The sample analysis of the test compound was performed using the liquid chromatography-tandem mass spectrometry (LCMS/MS) method. The semi-quantitative determination was performed using the ratio of the analyte peak area to the internal standard peak area. The retention times of the analyte and internal standard, chromatogram acquisition, and chromatogram integration were processed using Analyst software.
The in vitro elimination rate constant k of the test compound and the control compound was determined by converting the ratio of the peak area of the test compound to the internal standard into the remaining rate, and T1/2 was then calculated according to the following formula. T1/2 = (Ln2)/(k) = (0.693)/(k) [formula] Table 3. […]

The target in another series is T1, human CXCR2 (Homo sapiens, UniProt P25025).
T1 construct: expressed in transfected cells; host or cells: HEK293
T1 sequence (P25025 1-360): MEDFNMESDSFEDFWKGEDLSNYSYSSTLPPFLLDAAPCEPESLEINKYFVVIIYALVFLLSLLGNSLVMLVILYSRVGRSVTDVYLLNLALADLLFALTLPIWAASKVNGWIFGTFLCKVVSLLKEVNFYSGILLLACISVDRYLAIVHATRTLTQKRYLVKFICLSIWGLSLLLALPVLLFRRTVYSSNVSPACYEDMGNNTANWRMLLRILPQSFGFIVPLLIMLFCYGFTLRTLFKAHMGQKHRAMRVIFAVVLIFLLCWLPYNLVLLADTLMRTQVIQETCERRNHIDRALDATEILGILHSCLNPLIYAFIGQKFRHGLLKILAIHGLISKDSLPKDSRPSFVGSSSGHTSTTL
The series is described as follows: human CXCR2 calcium flux activity (FLIPR, HEK293 cells stably expressing human CXCR2, IL-8 stimulation). Type of series: cell-based. The settings on record: HEK293 cells stably expressing human CXCR2, EC80 human IL-8; read-out: CXCR2 inhibitory activity, IC50. The method, then:
The activity of the compounds was evaluated using HEK293 cells stably expressing human CXCR2 via the FLIPR platform. A 384-well black cell culture plate (Greiner, 781946) was used, with a seeding density of 20,000 cells/well, and incubated overnight at 37°C in a 5% CO2 incubator. The culture medium in the cell plate wells was removed, and 20 µL of Fluo-4 Direct™ Calcium Assay Buffer (Invitrogen, F10471, Component C), 20 µL of 2× Fluo-4 Direct™ Calcium Assay Reagent (Invitrogen, F10471, Component A) working solution, and 10 µL of 6× test compound working solution were sequentially added to each well. The cell plate was incubated in a 37 °C, 5% CO2 incubator for 50 min, followed by a 10 min incubation at room temperature. Additionally, a 6×EC80 human IL-8 (Sigma, SRP3311) working solution was prepared. After the incubation was completed, 10 µL/well of the 6×EC80 human IL-8 working solution was transferred to the corresponding cell wells using a FLIPR instrument, and the fluorescence signal changes at an excitation wavelength of 494 nm and an emission wavelength of 516 nm were recorded over 130 s. The difference between the maximum fluorescence signal (RFUMax) and the minimum fluorescence signal (RFUMin) was used as the output signal. The compound inhibition rate and the log value of the compound concentration were calculated, and a four-parameter fitting analysis was performed using GraphPad Prism 8 software to obtain the IC50 value of the test compound. Table 1. Inhibitory activity data of compounds against CCR6 and CXCR2
On the technique in general: Calcium flux is commonly read through the fluorescence of an indicator in the cells.

pIC50: −log10 of the molar value.

The pIC50 is −log10 of the IC50, conventionally taken in molar units.

With `CN(C)C(=O)c1nccc(Nc2c(N[C@@H](C#CC3CC3)C3(C)CCCC3)c(=O)c2=O)c1O` [compound 115, (R)-4-((2-((3-cyclopropyl-1-(1-methylcyclopentyl)prop-2-yn-1-yl)amino)-3,4-dioxocyclobut-1-en-1-yl)amino)-3-hydroxy-N,N-dimethylpicolinamide], in series [1], the “Liver microsome T1-2 (min) Mouse” value is 1889.54 min. Further, the pIC50 at human CXCR2 is 6.28.
For `CN(C)C(=O)c1nccc(Nc2c(N[C@@H](c3ncc(F)cc3F)C3(C)CCCC3)c(=O)c2=O)c1O` [compound 009, (R)-4-((2-(((3,5-difluoropyridin-2-yl)(1-methylcyclopentyl)methyl)amino)-3,4-dioxocyclobut-1-en-1-yl)amino)-3-hydroxy-N,N-dimethylpicolinamide], in that order: 178.84 min and 5.61.
Turning to `CN(C)C(=O)c1nccc(Nc2c(N[C@@H](c3cccc(Cl)n3)C3(C)CCCC3)c(=O)c2=O)c1O` [compound 003, (R)-4-((2-(((6-chloropyridin-2-yl)(1-methylcyclopentyl)methyl)amino)-3,4-dioxocyclobut-1-en-1-yl)amino)-3-hydroxy-N,N-dimethylpicolinamide], on human CXCR2, the pIC50 was 5.66.
Regarding `CN(C)C(=O)c1nccc(Nc2c(N[C@@H](c3cccc(CF)n3)C3(C)CCCC3)c(=O)c2=O)c1O` [compound 108, (R)-4-((2-(((6-(fluoromethyl)pyridin-2-yl)(1-methylcyclopentyl)methyl)amino)-3,4-dioxocyclobut-1-en-1-yl)amino)-3-hydroxy-N,N-dimethylpicolinamide], the pIC50 at human CXCR2 was 6.13.
For `CC#C[C@H](Nc1c(Nc2ccc(Cl)c(C(=O)N(C)C)c2O)c(=O)c1=O)C1(C)CCCC1` [compound 114, (R)-6-chloro-2-hydroxy-N, N-dimethyl-3-((2-((1-(1-methylcyclopentyl)but-2-yn-1-yl)amino)-3,4-dioxocyclobut-1-en-1-yl)amino)benzamide], in series [1], the “Liver microsome T1-2 (min) Mouse” value was 361.28 min. Further, the pIC50 on human CXCR2 is 5.84.
Taken in the same sequence, the figures for `CN(C)C(=O)c1nccc(Nc2c(N[C@@H](c3ccc(F)cn3)C3(C)CCCC3)c(=O)c2=O)c1O` [compound 005, (R)-4-((2-(((5-fluoropyridin-2-yl)(1-methylcyclopentyl)methyl)amino)-3,4-dioxocyclobut-1-en-1-yl)amino)-3-hydroxy-N,N-dimethylpicolinamide] were 1188.6 min and 5.90.
As for `CN(C)C(=O)c1nccc(Nc2c(N[C@@H](c3nc(Cl)ccc3F)[C@@]3(C)CC(F)(F)CO3)c(=O)c2=O)c1O` [068B, 4-((2-(((S)-(6-chloro-3-fluoropyridin-2-yl)((R)-4,4-difluoro-2-methyltetrahydrofuran-2-yl)methyl)amino)-3,4-dioxocyclobut-1-en-1-yl)amino)-3-hydroxy-N,N-dimethylpicolinamide], in series [1], the “Liver microsome T1-2 (min) Mouse” value is given as 65.23 min. Further, at human CXCR2, the pIC50 was 5.12.
In the case of `CC#C[C@H](Nc1c(Nc2ccnc(C(=O)N(C)C)c2O)c(=O)c1=O)C1(C)CCCC1` [compound 113, (R)-3-hydroxy-N, N-dimethyl-4-((2-((1-(1-methylcyclopentyl)but-2-yn-1-yl)amino)-3,4-dioxocyclobut-1-en-1-yl)amino)picolinamide], on human CXCR2, the pIC50 is 5.83.
On to `CN(C)C(=O)c1nccc(Nc2c(N[C@@H](C#CC3CCC3)[C@]3(C)CC(F)(F)CO3)c(=O)c2=O)c1O` (single isomer, unassigned) [110A], for which the “Liver microsome T1-2 (min) Mouse” value in series [1] is listed as 1597.63 min. Besides, at human CXCR2, the pIC50 was 6.53.
Taken in the same sequence, the figures for `Cc1cccnc1[C@H](Nc1c(Nc2ccc(Cl)c(C(=O)N(C)C)c2O)c(=O)c1=O)C1(C)CCCC1` [compound 063, (R)-6-chloro-2-hydroxy-N,N-dimethyl-3-((2-(((1-methylcyclopentyl)(3-methylpyridin-2-yl)methyl)amino)-3,4-dioxocyclobut-1-en-1-yl)amino)benzamide] were not below 120 min and 4.81.
In the case of `Cc1cc(F)cnc1[C@H](Nc1c(Nc2ccnc(C(=O)N(C)C)c2O)c(=O)c1=O)[C@]1(C)CC(F)(F)CO1` [093A, 4-((2-(((S)-((S)-4,4-difluoro-2-methyltetrahydrofuran-2-yl)(5-fluoro-3-methylpyridin-2-yl)methyl)amino)-3,4-dioxocyclobut-1-en-1-yl)amino)-3-hydroxy-N,N-dimethylpicolinamide], the pIC50 at human CXCR2 was less than 4.00.
